Source: patent publication US8633019B2, “Methods for treating spinal muscular atrophy” (PTC Therapeutics, Inc., priority 2008, dated 2014)

test system: inclusion of exon 7 of SMN2 into mRNA transcribed from the SMN2-A minigene; assay: Fold Activation: luciferase reporter, SMN2-A minigene construct versus SMN2-G minigene construct, in stably transfected HEK293H cells; format: cell-based, human; conditions: ratio of First Activation using the SMN2-A construct divided by Second Activation using the SMN2-G construct
Excerpt: In a specific embodiment, the first cell and the second cell are the same cell type. In some embodiments, the first cell and the second cell are the same cell type and are obtained from the same source or clone. In some embodiments, the first reporter gene and the second reporter gene are the same reporter gene. In other embodiments, the first reporter gene and second reporter gene are different reporter genes. A compound that increases the inclusion of exon 7 of SMN2 into mRNA transcribed from the SMN2 gene will result in a Fold Activation derived from a higher ratio of the First Activation:
[formula] [formula] [formula] In some embodiments, both the amount and activity of the first and second fusion proteins are detected. Accordingly, as used herein, the Fold Activation for a compound that modulates the inclusion of exon 7 of SMN2 into mRNA transcribed from the SMN2 gene is a ratio of the First Activation divided by the Second Activation.
The HEK293H cell line stably transfected with the SMN2-A minigene construct was utilized in the HTS. HTS was performed by plating 10,000 cells in each well of a 384-well plate. Each 384-well plate contained 64 control wells used as an internal standard: 16 wells were used as a total control (no test compound, only compound solvent), 16 wells were used as reference standards representing background readings (high inhibitor concentration) and 32 wells were prepared to provide an 8-point dose response curve of puromycin as a non-specific standard control inhibitor. The remaining 320 wells contained individual test compounds. The cells were grown overnight in the presence of test compounds or controls at 37° C. in 5% CO2. After 24 hours, the amount of luminescence was determined using a ViewLux Imaging system (Perkin Elmer).
Using the SMN2-A minigene construct, a HTS was performed testing a compound library. The amount of the fusion protein expressed from the minigene construct was determined by measuring luciferase activity as described herein. […] Enhancers of fusion protein expression were defined as those compounds that increased luciferase activity by at least three standard deviations above the mean. Based on this analysis, test compounds of Formula (I) were identified as hits and were subsequently confirmed by testing the compounds under the same conditions as in the original HTS. To ensure that the increase in luciferase activity detected in the HTS was due to increased inclusion of exon 7 of SMN2 into mRNA transcripts from the SMN2-A minigene construct, each compound was tested in two different cell lines: the cell line, which was used in the original HTS (HEK293H containing the SMN2-A minigene construct), and a HEK293H cell line that contained the SMN2-G minigene construct.
Each compound was tested at four concentrations: 15 μM, 3 μM, 0.6 μM, 0.12 μM.
The Fold Activation results are provided as a ratio of a First Activation using the SMN-2A construct divided by a Second Activation using the SMN-2G construct, wherein 1 star (*) represents active compounds with a fold increase ratio between 1.1-1.3; 2 stars (**) represent active compounds with a fold increase ratio between 1.3-2.0; 3 stars (***) represent active compounds with a fold increase ratio greater than 2.0.

SMILES	Activity (Fold Activation)
Cc1ccc2nc(-c3cccc(C(N)=O)c3)oc2c1 [Cpd 112, 3-(6-methyl-benzooxazol-2-yl)-benzamide]	** (2 stars (**) represent active compounds with a fold increase ratio between 1.3-2.0)
Cc1cc(C)cc(-c2ccc3oc(-c4cccc(C(=O)O)c4)nc3c2)c1 [Cpd 37, 3-[5-(3,5-dimethyl-phenyl)-benzooxazol-2-yl]-benzoic acid]	* (1 star (*) represents active compounds with a fold increase ratio between 1.1-1.3)
O=C(O)c1cccc(-c2nc3ccc(C(=O)N4CCCC4)cc3o2)c1 [Cpd 71, 3-[6-(pyrrolidine-1-carbonyl)-benzooxazol-2-yl]-benzoic acid]	** (2 stars (**) represent active compounds with a fold increase ratio between 1.3-2.0)
O=C(O)c1cccc(-c2nc3cc(N4CCCC4)ccc3o2)c1 [Cpd 43, 3-(5-pyrrolidin-1-yl-benzooxazol-2-yl)-benzoic acid]	** (2 stars (**) represent active compounds with a fold increase ratio between 1.3-2.0)
O=C(O)c1cccc(-c2nc3ccc(-c4ccccc4)cc3o2)c1 [Cpd 23, 3-(6-Phenyl-benzooxazol-2-yl)-benzoic acid]	* (1 star (*) represents active compounds with a fold increase ratio between 1.1-1.3)
O=C(O)c1ccc2oc(-c3ccc(N4CCC4)cc3)nc2c1 [Cpd 57, 2-(4-azetidin-1-yl-phenyl)-benzooxazole-5-carboxylic acid]	** (2 stars (**) represent active compounds with a fold increase ratio between 1.3-2.0)
O=C(O)c1cccc(-c2nc3cc(-c4ccc(OC(F)(F)F)cc4)ccc3o2)c1 [Cpd 29, 3-[5-(4-trifluoromethoxy-phenyl)-benzooxazol-2-yl]-benzoic acid]	** (2 stars (**) represent active compounds with a fold increase ratio between 1.3-2.0)
CC(=O)Nc1ccc2oc(-c3ccc(Br)c(C)c3)nc2c1 [Cpd 128, N-[2-(4-bromo-3-methyl-phenyl)-benzooxazol-5-yl]-acetamide]	*** (3 stars (***) represent active compounds with a fold increase ratio greater than 2.0)
O=C(O)c1ccc2nc(-c3ccc(N4CCC4)nc3)oc2c1 [Cpd 93, 2-(6-azetidin-1-yl-pyridin-3-yl)-benzooxazole-6-carboxylic acid]	** (2 stars (**) represent active compounds with a fold increase ratio between 1.3-2.0)
O=C(O)c1cccc(-c2nc3ccc(-n4cccn4)cc3o2)c1 [Cpd 44, 3-(6-pyrazol-1-yl-benzooxazol-2-yl)-benzoic acid]	** (2 stars (**) represent active compounds with a fold increase ratio between 1.3-2.0)
COc1ccc2oc(-c3cccc(C(=O)O)c3)nc2c1 [Cpd 32, 3-(5-methoxy-benzooxazol-2-yl)-benzoic acid]	*** (3 stars (***) represent active compounds with a fold increase ratio greater than 2.0)
CN1CCN(c2ccc3nc(-c4cccc(C(=O)O)c4)oc3c2)CC1 [Cpd 48, 3-[6-(4-methyl-piperazin-1-yl)-benzooxazol-2-yl]-benzoic acid]	* (1 star (*) represents active compounds with a fold increase ratio between 1.1-1.3)
CC(C)(C)c1ccc2oc(-c3cccc(C(=O)O)c3)nc2c1 [Cpd 6, 3-(5-tert-butyl-benzooxazol-2-yl)-benzoic acid]	** (2 stars (**) represent active compounds with a fold increase ratio between 1.3-2.0)
NC(=O)c1cccc(-c2nc3ccc(Nc4ccccc4)cc3o2)c1 [Cpd 106, 3-(6-phenylamino-benzooxazol-2-yl)-benzamide]	* (1 star (*) represents active compounds with a fold increase ratio between 1.1-1.3)
CC(C)c1ccc(-c2nc3cc(C(=O)O)ccc3o2)cc1 [Cpd 24, 2-(4-isopropyl-phenyl)-benzooxazole-5-carboxylic acid]	*** (3 stars (***) represent active compounds with a fold increase ratio greater than 2.0)
O=C(O)c1ccc2oc(-c3ccc(N4CCCCC4)nc3)nc2c1 [Cpd 91, 2-(3,4,5,6-tetrahydro-2H-[1,2′]bipyridinyl-5′-yl)-benzooxazole-5-carboxylic acid]	** (2 stars (**) represent active compounds with a fold increase ratio between 1.3-2.0)
O=C(O)c1cccc(-c2nc3ccc(N4CCC4)cc3o2)c1 [Cpd 52, 3-(6-azetidin-1-yl-benzooxazol-2-yl)-benzoic acid]	** (2 stars (**) represent active compounds with a fold increase ratio between 1.3-2.0)
CN1CCCN(c2ccc3nc(-c4cccc(C(=O)O)c4)oc3c2)CC1 [Cpd 81, 3-[6-(4-methyl-[1,4]diazepan-1-yl)-benzooxazol-2-yl]-benzoic acid]	* (1 star (*) represents active compounds with a fold increase ratio between 1.1-1.3)
O=C(O)c1ccc2nc(-c3ccc(-c4ccccc4)cc3)oc2c1 [Cpd 18, 2-biphenyl-4-yl-benzooxazole-6-carboxylic acid]	* (1 star (*) represents active compounds with a fold increase ratio between 1.1-1.3)
Cc1ccc2oc(-c3cccc(C(=O)O)c3)nc2c1 [Cpd 21, 3-(5-methyl-benzooxazol-2-yl)-benzoic acid]	*** (3 stars (***) represent active compounds with a fold increase ratio greater than 2.0)
Cc1ccc2nc(-c3ccc(C(=O)O)cc3)oc2c1 [Cpd 11, 4-(6-methyl-benzooxazol-2-yl)-benzoic acid]	** (2 stars (**) represent active compounds with a fold increase ratio between 1.3-2.0)
O=C(O)c1cccc(-c2nc3ccc(Cn4ccnc4)cc3o2)c1 [Cpd 8, 3-(6-imidazol-1-ylmethyl-benzooxazol-2-yl)-benzoic acid]	** (2 stars (**) represent active compounds with a fold increase ratio between 1.3-2.0)
